The values below come from patent US6825181B1, “Aminoisoquinoline derivatives” (Ajinomoto Co., Inc., priority 1998, dated 2004).

What all share (type): biochemical
In assay [1] the target is T1, activated human blood coagulation factor X (Homo sapiens, UniProt P00742).
T1 construct: purchased Enzyme Research Co
As to the kind of experiment: Determination of activity of inhibiting the activated blood-coagulation factor X. The conditions noted are these: negative logarithm of concentration inhibiting 50% of initial rate; pH 8.4, room temperature; read-out: Activity of inhibiting activated blood coagulation factor X (pIC50) (converted). On the procedure:
Determination of Activity of Inhibiting the Activated Blood-Coagulation Factor X
130 μl of 100 mM tris hydrochloride buffer adjusted to pH 8.4 was added to 10 μl of an aqueous solution of a compound to be tested. Then 10 μl of a 0.5 unit/ml solution of activated human blood coagulation factor X (a product of Enzyme Research Co.) in tris hydrochloride of pH 8.4 was added to the resultant mixture. After the incubation at room temperature for 10 minutes, 50 μl of a solution of N-benzoyl-L-isoleucyl-L-glutamyl-glycyl-L-arginyl-P-nitroanilide hydrochloride (a product of Peptide Institute, Inc.) adjusted to 0.8 mM with tris hydrochloride (pH 8.4) was added thereto. The absorbance was determined and then the initial reaction rate was determined. A control was prepared in the same manner as that described above except that the solution of the compound to be tested was replaced with 10 μl of tris hydrochloride buffer adjusted to pH 8.4. The absorbance was determined with MICROPLATE READER Model 3550-UV (a product of BIO RAD) at a wave length of 405 nm at intervals of 15 seconds for 16 minutes.

A further assay concerns the target T2, human thrombin (Homo sapiens, UniProt P00734).
T2 construct: solution of human thrombin (a product of SIGMA Co.); purchased SIGMA Co
As to the kind of experiment: Determination of thrombin-inhibiting activity. The conditions noted are these: negative logarithm of concentration inhibiting 50% of initial rate; substrate S-2238, pH 8.4; read-out: Thrombin-inhibiting activity (pIC50) (converted). On the procedure:
Determination of Thrombin-Inhibiting Activity:
130 μl of 100 mM tris hydrochloride buffer adjusted to pH 8.4 was added to 10 μl of an aqueous solution of a test compound. Then 10 μl of a solution of human thrombin (a product of SIGMA Co.) adjusted to 2 units/ml with tris hydrochloride buffer of pH 8.4 was added to the resultant mixture. After the incubation at room temperature for 10 minutes, 50 μl of a solution of D-phenylalanyl-L-pipecolyl-L-arginyl-P-nitroanilide dihydrochloride (S-2238; a product of Daiichi Kagaku Yakuhin Co.) adjusted to 0.4 mM with tris hydrochloride buffer of pH 8.4 was added thereto. The absorbance was determined and then the initial reaction rate was determined. A control was prepared in the same manner as that described above except that the solution of the compound to be tested was replaced with 10 μl of tris hydrochloride buffer adjusted to pH 8.4. The absorbance was determined with MICROPLATE READER Model 3550-UV (a product of […]) at a wave length of 405 nm at intervals of 15 seconds for 16 minutes. The negative logarithm (pIC50) of a concentration of the test compound which inhibits 50% of the activity (initial rate) of the thrombin in the absence of the test compound was determined, and employed as the index of the activity of inhibiting thrombin.

Assay [2] relates to blood plasma from healthy people (prothrombin time). As to the kind of experiment: Determination of blood anticoagulating activity by prothrombin time (PT) determination method. Particulars: negative logarithm of concentration which elongated PT of the control to twice as long; human blood plasma. On the procedure:
Determination of Blood Anticoagulating Activity:
The blood anticoagulating activity was determined by a prothrombin time (PT) determination method. The PT was determined as follows: The blood was taken from healthy people. 3.8% aqueous trisodium citrate solution was added to the blood in a volume ratio of 1:10. The blood plasma was separated by the centrifugation. 5 μl of DMSO solution containing a test compound was added to 45 μl of the blood plasma. After the incubation at room temperature for 2 minutes, a test tube containing the blood plasma solution was placed in Sysmex CA-3000 fully automatic blood coagulation determination device (a product of To a Medical Electronics Co., Ltd.), and incubated at 37° C. for 3 minutes. 100 μl of Sysmex PT II (rabbit brain tissue thromboplastin, 13.2 mM calcium chloride; a product of To a Medical Electronics Co., Ltd.) was fed into the test tube. PT was automatically determined with the device. A sample containing […] of DMSO in place of the solution of the test compound was used as the control. The negative logarithm (PT2) of the concentration of the test compound which elongated PT of the control to the twice as long was determined, and employed as the index of the blood anticoagulating activity.

T1 sequence (P00742 235-488 limits assumed): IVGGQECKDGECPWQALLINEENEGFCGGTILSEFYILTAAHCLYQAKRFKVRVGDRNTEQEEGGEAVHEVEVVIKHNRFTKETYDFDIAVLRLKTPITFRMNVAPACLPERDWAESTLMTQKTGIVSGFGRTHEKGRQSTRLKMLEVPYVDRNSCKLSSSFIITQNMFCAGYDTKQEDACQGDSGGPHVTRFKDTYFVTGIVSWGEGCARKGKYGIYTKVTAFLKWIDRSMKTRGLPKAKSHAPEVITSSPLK
T1 sequence (P00742 41-179 partner limits assumed): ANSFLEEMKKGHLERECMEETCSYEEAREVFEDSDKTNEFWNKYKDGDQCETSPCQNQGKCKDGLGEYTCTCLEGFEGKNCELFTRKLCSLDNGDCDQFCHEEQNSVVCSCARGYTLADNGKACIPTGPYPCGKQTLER

With `Nc1nccc2cc(CC(=O)C(=O)O)c(OCCNC(=O)C3CCN(c4ccncc4)CC3)cc12` [Compound of Ex. 27, 3-[1-amino-7-(2-(4-(1-(4-pyridyl)-4-piperidine)carbonylamino)ethoxy)isoquinoline-6-yl]-2-oxopropionic acid bistrifluoroacetate], the results for the IC50 (in assay [1]; on human thrombin) were 0.251 µM and greater than 501 µM, respectively. Besides, the “Blood anticoagulating activity (PT2)” value in assay [2] worked out at 6.2.

On to `Nc1nccc2cc(CC(=O)C(=O)O)c(OCCNC(=O)c3ccc(C(=O)N4CCCC4)cc3)cc12` [Compound of Ex. 23, 3-[1-amino-(2-(4-(1-pyrrolidinecarbonyl)benzoylamino)ethoxy)isoquinoline-6-yl]-2-oxopropionic acid mono-trifluoroacetate], for which the figures for the IC50 (in assay [1]; at human thrombin) were 0.0251 µM and 15.8 µM, respectively.

For `CC(=N)N1CCC(Oc2ccc(C(=O)NCCOc3cc4c(N)nccc4cc3CC(=O)C(=O)O)cc2)CC1` [Compound of Ex. 26, 3-[1-amino-7-(2-(4-(1-acetimidoyl-4-piperidyloxy)benzoylamino)ethoxy)isoquinoline-6-yl]-2-oxopropionic acid bistrifluoroacetate], the figures for the IC50 (in assay [1]; on human thrombin) were 0.2 µM and greater than 501 µM, respectively. Moreover, the “Blood anticoagulating activity (PT2)” value in assay [2] is given as 6.2.

In the case of `Nc1nccc2ccc(OCCNC(=O)c3ccc(C(=O)N4CCCC4)cc3)cc12` [Compound of Ex. 2, N-[2-(1-aminoisoquinoline-7-yloxy)ethyl]-4-(1-pyrrolidinecarbonyl)benzamide mono-trifluoroacetate], the IC50 is 0.251 µM in assay [1] and 251 µM on human thrombin. Further, the “Blood anticoagulating activity (PT2)” value in assay [2] worked out at 5.5.

With `N=C(N)Nc1ccc(C(=O)N[C@H](CCC(=O)O)COc2ccc3ccnc(N)c3c2)cc1` [Compound of Ex. 25, (4R)-5-(1-aminoisoquinoline-7-yloxy)-4-[4-(guanidino)benzoylamino]pentanoic acid mono-trifluoroacetate], the IC50 is 0.398 µM in assay [1] and 794 µM on human thrombin.

With `Nc1nccc2ccc(OC[C@@H](CCC(=O)O)NC(=O)C3CCN(c4ccncc4)CC3)cc12` [Compound of Ex. 21, (4R)-5-(1-aminoisoquinoline-7-yloxy)-4-[(1-(4-pyridyl)-4-piperidine)carbamido]pentanoic acid bistrifluoroacetate], the IC50 is 0.158 µM in assay [1] and 316 µM at human thrombin.

With `CCOC(=O)CC[C@H](COc1ccc2ccnc(N)c2c1)NC(=O)c1ccc(C(=O)N2CCCC2)cc1` [Compound of Ex. 17, ethyl (4R)-5-(1-aminoisoquinoline-7-yloxy)-4-[4-(1-pyrrolidinecarbonyl)benzoylamino]pentanoate mono-trifluoroacetate], the figures for the IC50 (in assay [1]; at human thrombin) were 0.251 µM and 316 µM, respectively.

For the compound `Nc1nccc2ccc(OC[C@@H](CCC(=O)O)NC(=O)c3ccc(C(=O)N4CCCC4)cc3)cc12` [Compound of Ex. 16, (4R)-5-(1-aminoisoquinoline-7-yloxy)-4-[4-(1-pyrrolidinecarbonyl)benzoylamino]pentanoic acid mono-trifluoroacetate], the IC50 in assay [1] was 0.0794 µM; on human thrombin, greater than 1000 µM. Also, the “Blood anticoagulating activity (PT2)” value in assay [2] is on record as 5.6.
